# Experimental data published in patent US5480880A, “Penem derivatives” (Farmitalia Carlo Erba S.r.l., priority 1991, dated 1996).
# How the values were obtained:
# [1] = test system: Staphylococcus aureus Smith ATCC 13709; test: In vivo activity on mouse systemic infection, S. aureus (ED50); settings: ATCC13709, sc, 120 h, mouse systemic infection (female CD1), subcutaneous, treatment 120 min after infection, survival on day 5, read-out: ED50 (cumulative subcutaneous dose)
# Description: (§1) Invivo activity of Compound of formula (I), R =
# (§2) CH2 SO2 NHCN (Example 1), in comparison with FCE 22101*,
# (§3) on mouse^a systemic infections.
# (§4) ^a) Female mice CD1 (Charles River, Italy), weighing 22 ± 2 g were
# (§5) used, experimentally infected by an introperitoneal route. Eight animals
# (§6) were used at each of the concentrations of compound tested, which were
# (§7) administered subcutaneously (0.1 ml/10 g weight). The mortality was
# (§8) recorded daily and the number of animals surviving on day 5 was used to
# (§9) calculate the cumulative effective dose (ED50).
# (§10) ^b) Cumulative subcutaneous dose.
# (§11) ^c) Infecting organisms were: S. aureus, Staphylococcus aureus Smith
# (§12) ATCC 13709; E. Coli, Escherichia coli G (clinical isolate); S. faecalis,
# (§13) ^d) Minutes after infection.
# Acute toxicity in mice = settings: in vivo; mouse, I.D. (so in the source)
# [2] = test system: Escherichia coli G (clinical isolate); test: In vivo activity on mouse systemic infection, E. coli (ED50); settings: sc, 120 h, mouse systemic infection (female CD1), subcutaneous, treatment 30-90-360 min after infection, survival on day 5, read-out: ED50 (cumulative subcutaneous dose)
# Description: as §1, §2, §3, §4, §5, §6, §7, §8, §9, §10, §11, §12, §13
# [3] = test system: Streptococcus faecalis 3817 (clinical isolate); test: In vivo activity on mouse systemic infection, S. faecalis (ED50); settings: Enterococcus faecalis, sc, 120 h, mouse systemic infection (female CD1), subcutaneous, treatment 60-180 min after infection, survival on day 5, read-out: ED50 (cumulative subcutaneous dose)
# Description: as §1, §2, §3, §4, §5, §6, §7, §8, §9, §10, §11, §12
# Streptococcus faecalis 3817 (clinical isolate).
# as §13
Structure (SMILES),ED50 [1],LD50 (Acute toxicity in mice),ED50 [2],ED50 [3]
"CC(O)C1C(=O)N2C(C(=O)O)=C(c3ccc(C[n+]4ccc(CS(=O)(=O)[N-]C#N)cc4)cc3)SC12 [Example 1, (5R,6S)-6-/1 (R)-Hydroxyethyl/-2-/4-/4-(N-cyanosulfamoylato) methyl-1-pyridinio/methylphenyl/penem-3-carboxylic acid]",0.16 mg/kg,> 3000 mg/kg,0.65 mg/kg,8.5 mg/kg
"CC(O)C1C(=O)N2C(C(=O)O)=C(COC(N)=O)SC12 (stereo not shown) [FCE 22101, reference compound]",0.7 mg/kg,,10 mg/kg,80 mg/kg
